Laboratory results as given in patent publication US20200000091A1, “Microbe Proliferation Inhibitor, Method for Inhibiting Proliferation of Microbes, UV Resistance-Improving Agent, Method for Improving UV Resistance, Artificial Protein Formation Body and method for Manufacturing Same, Artificial Protein Solution, and Coloring Agent” (Keio University, priority 2017, published 2020).

System: Escherichia coli wild strain (W3110)
Experiment: Growth of Escherichia coli in M9 medium, absorbance (OD600) measured every hour
Type: cell-based
Conditions: 1 mM xanthurenic acid in M9 medium (Tris-HCl buffer pH 8), compared with Comparative Example 1 (no xanthurenic acid), FIG. 1
Procedure: An Escherichia coli wild strain (W3110) was cultured in M9 medium (7 mg/ml K2HPO4, 3 mg/ml KH2PO4, 0.5 mg/ml NaCl, 1 mg/ml NH4Cl, 1 mg/ml glucose, 1 mM MgSO4.7H2O, 14.7 μg/ml CaCl2)) containing 10 μg/ml thiamine. In preparing the medium, a Tris-HCl buffer solution (pH 8) was used instead of water in consideration of the solubility of xanthurenic acid. The obtained overnight cultures were diluted into 0.8% with 20 ml of a fresh medium containing 1 mM xanthurenic acid (Wako Pure Chemical Industries, Ltd.) to obtain a sample solution. Absorbance (OD600) was measured as to this sample solution every hour by using Nano Photometer (Implen GmbH).
The preparation and measurement of a sample solution were performed in the same way as in Example 1 except that the overnight cultures were diluted with a fresh medium containing no xanthurenic acid.

Structure (SMILES): O=C(O)c1cc(O)c2cccc(O)c2n1 [Example 1, xanthurenic acid]
- absorbance (OD600); proliferation of Escherichia coli: proliferation of Escherichia coli was inhibited
